Drawing on patent US20050020611A1, “Compounds” (priority 2003, published 2005), this text covers IC50 for 15 molecules.

Experiment [1] concerns TNFα release from human peripheral blood mononuclear cells. As to the kind of experiment: Inhibition of LPS-stimulated TNFα release from human peripheral blood mononuclear cells (TNFα screen, ELISA). The experiment is classed as cell-based. The note with it: human PBMC, 18 hours incubation, TNFα in supernatant by ELISA. The method, then: Venous blood is collected from healthy volunteers and the mononuclear cells purified by centrifugation through Histopaque (Ficoll) cushions. TNFα production from these cells is stimulated by addition of lipopolysaccharide. After 18 hours incubation in the presence of LPS, the cell supernatant is removed and the concentration of TNFα in the supernatant determined by ELISA.
For orientation: An ELISA detects its analyte on a solid surface through an enzyme-linked reagent.

The next experiment deals with PDE4. As to the kind of experiment: PDE4 inhibition: hydrolysis of tritium labelled cAMP to AMP, SPA bead scintillation counting. The format is biochemical. The following applies: 50% reduction in counts compared to PDE4 only control wells. The method, then:
The PDE4 inhibitory activity of the nicotinamide derivatives of the formula (I) is determined by the ability of compounds to inhibit the hydrolysis of cAMP to AMP by PDE4 (Thompson J W, Teraski W L, Epstein P M, Strada S J., “Assay of nucleotidephosphodiesterase and resolution of multiple molecular forms of the isoenzyme”, Advances in cyclic nucleotides research, edited by Brooker G, Greengard P, Robinson G A. Raven Press, New York 1979, 10, p. 69-92). Tritium labelled cAMP is incubated with PDE4. Following incubation, the radiolabelled AMP produced is able to bind yttrium silicate SPA beads. These SPA beads subsequently produce light that can be quantified by scintillation counting. The addition of a PDE4 inhibitor prevents the formation of AMP from cAMP and counts are diminished. The IC50 of a PDE4 inhibitor can be defined as the concentration of a compound that leads to a 50% reduction in counts compared to the PDE4 only (no inhibitor) control wells.

Usually IC50 stands for the midpoint of a concentration-inhibition curve. Higher therefore signals weaker potency. With `COc1ccc(C)cc1S(=O)(=O)N[C@H]1CC[C@@H](NC(=O)c2cccnc2OC2CCSCC2)CC1` [Example 27, Syn-N-[4-(2-methoxy-5-methyl-benzenesulfonylamino)-cyclohexyl]-2-(tetrahydro-thiopyran-4-yloxy)-nicotinamide], in experiment [1], the IC50 amounted to 5 nM.
The same measure, in the same setting: with `COc1ccc2cccnc2c1S(=O)(=O)N[C@H]1CC[C@@H](NC(=O)c2cc(F)cnc2OC2CCSCC2)CC1` [Example 28, Syn-5-Fluoro-N-[4-(7-methoxy-quinoline-8-sulfonylamino)-cyclohexyl]-2-(tetrahydro-thiopyran-4-yloxy)-nicotinamide] the figure was 0.2 nM; with `COc1ccccc1-c1cc(C(=O)N[C@H]2CC[C@@H](NC(=O)c3cc(F)cnc3OC3CCSCC3)CC2)n[nH]1` [Example 2, Syn-5-Fluoro-N-(4-{[5-(2-methoxy-phenyl)-1H-pyrazole-3-carbonyl]-amino}-cyclohexyl)-2-(tetrahydro-thiopyran-4-yloxy)-nicotinamide], 1.5 nM.
In the case of `Cc1ccc(C(=O)N[C@H]2CC[C@@H](NC(=O)c3cc(F)cnc3OC3CCSCC3)CC2)c(OCCO)c1` [Example 10], the values for the IC50 (in experiment [1]; in the experiment with PDE4) were 0.04 nM and 5 nM, respectively.
On to `COc1ccc2cccnc2c1S(=O)(=O)N[C@H]1CC[C@@H](NC(=O)c2cccnc2OC2CCSCC2)CC1` [Example 29, Syn-N-[4-(7-methoxy-quinoline-8-sulfonylamino)-cyclohexyl]-2-(tetrahydro-thiopyran-4-yloxy)-nicotinamide], for which, in experiment [1], the IC50 was determined as 0.4 nM.
In experiment [1], `O=C(N[C@H]1CC[C@@H](NC(=O)c2cc(F)cnc2OC2CCSCC2)CC1)c1ccc(O)cc1OCC1CC1` [Example 23] had an IC50 of 0.2 nM.
In turn, `COc1ccn2ccnc2c1C(=O)N[C@H]1CC[C@@H](NC(=O)c2cc(F)cnc2OC2CCSCC2)CC1` [Example 3, Syn-7-Methoxy-imidazo[1,2-a]pyridine-8-carboxylic acid(4-{[5-fluoro-2-(tetrahydro-thiopyran-4-yloxy)-pyridine-3-carbonyl]-amino}-cyclohexyl)amide] registered an IC50 in experiment [1] of 0.02 nM.
As for `CCOc1cc(O)ccc1C(=O)N[C@H]1CC[C@@H](NC(=O)c2cc(F)cnc2OC2CCSCC2)CC1` [Example 22, Syn-N-[4-(2-Ethoxy-4-hydroxy-benzoylamino)-cyclohexyl]-5-fluoro-2-(tetrahydro-thiopyran-4-yloxy)-nicotinamide], in experiment [1], the IC50 was determined as 0.2 nM.
`COc1cc(O)ccc1C(=O)N[C@H]1CC[C@@H](NC(=O)c2cc(F)cnc2OC2CCSCC2)CC1` [Example 1] displayed an IC50 in experiment [1] of 0.7 nM.
Turning to `Cc1cnc(OC2CCSCC2)c(C(=O)N[C@H]2CC[C@@H](NC(=O)c3ccccc3OCCO)CC2)c1` [Example 13, Syn-N-{4-[2-(2-Hydroxy-ethoxy)-benzoylamino]-cyclohexyl}-5-methyl-2-(tetrahydro-thiopyran-4-yloxy)-nicotinamide], the half-maximal inhibitory concentration (IC50) in experiment [1] amounted to 4 nM.
Turning to `O=C(N[C@H]1CC[C@@H](NC(=O)c2cc(F)cnc2OC2CCSCC2)CC1)c1ccccc1OCCCO` [Example 14, Syn-5-Fluoro-N-{4-[2-(3-hydroxy-propoxy)-benzoylamino]-cyclohexyl}-2-(tetrahydro-thiopyran-4-yloxy)-nicotinamide], the IC50 in experiment [1] was found to be 0.1 nM.
Regarding `O=C(N[C@H]1CC[C@@H](NC(=O)c2cc(F)cnc2OC2CCSCC2)CC1)c1ccccc1OCCO` [Example 4, Syn-5-Fluoro-N-{4-[2-(2-hydroxy-ethoxy)-benzoylamino]-cyclohexyl}-2-(tetrahydro-thiopyran-4-yloxy)-nicotinamide], the IC50 is 0.04 nM in experiment [1] and 1.5 nM in the experiment with PDE4.
The corresponding values for `Cc1cccc(C(=O)N[C@H]2CC[C@@H](NC(=O)c3cc(F)cnc3OC3CCSCC3)CC2)c1OCCO` [Example 9] are 0.1 nM and 2.8 nM.
On to `Cc1ccc(OCCO)c(C(=O)N[C@H]2CC[C@@H](NC(=O)c3cc(F)cnc3OC3CCSCC3)CC2)c1` [Example 5], for which the 50% inhibitory concentration (IC50) in experiment [1] was determined as 0.02 nM; in the experiment with PDE4, 1 nM.
In experiment [1], `O=C(N[C@H]1CC[C@@H](NC(=O)c2cc(F)cnc2OC2CCSCC2)CC1)c1ccc(O)cc1OC1CCCC1` [Example 24, Syn-N-[4-(2-Cyclopentoxy-4-hydroxy-benzoylamino)-cyclohexyl]-5-fluoro-2-(tetrahydro-thiopyran-4-yloxy)-nicotinamide] registered an IC50 of 0.1 nM.
